Structures are written as SMILES.

Test [1] concerns the target T1, NAD-dependent protein deacetylase sirtuin-1 (Homo sapiens, UniProt Q96EB6).
T1 sequence (Q96EB6 whole entry): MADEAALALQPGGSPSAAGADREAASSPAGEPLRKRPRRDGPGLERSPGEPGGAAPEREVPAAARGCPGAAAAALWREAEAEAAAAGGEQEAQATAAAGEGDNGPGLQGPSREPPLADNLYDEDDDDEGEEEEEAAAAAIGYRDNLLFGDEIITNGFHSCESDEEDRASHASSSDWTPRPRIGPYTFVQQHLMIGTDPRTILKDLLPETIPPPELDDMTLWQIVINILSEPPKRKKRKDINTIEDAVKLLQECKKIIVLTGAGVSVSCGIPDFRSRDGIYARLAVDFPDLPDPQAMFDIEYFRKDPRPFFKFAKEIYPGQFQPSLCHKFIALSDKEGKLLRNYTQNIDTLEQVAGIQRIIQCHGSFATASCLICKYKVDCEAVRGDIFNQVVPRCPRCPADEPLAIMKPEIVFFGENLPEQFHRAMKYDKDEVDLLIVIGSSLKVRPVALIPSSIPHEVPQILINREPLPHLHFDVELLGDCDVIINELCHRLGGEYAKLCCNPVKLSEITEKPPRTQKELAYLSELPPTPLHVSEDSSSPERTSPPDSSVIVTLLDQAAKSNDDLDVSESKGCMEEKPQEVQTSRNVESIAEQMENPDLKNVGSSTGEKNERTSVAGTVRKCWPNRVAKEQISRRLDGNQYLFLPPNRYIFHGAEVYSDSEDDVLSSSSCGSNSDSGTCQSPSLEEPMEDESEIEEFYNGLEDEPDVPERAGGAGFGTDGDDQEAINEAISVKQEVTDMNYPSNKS
The test can be described thus: Inhibition of hexa-His-tagged recombinant human SIRT1 expressed in Escherichia coli BL21(DE3) using AMC-labeled Arg-His-Lys-Lys(ac) as substrate assessed as inhibition of deacetylation of peptide after 45 mins by fluorescence assay.

The target of test [2] is T2, NAD-dependent protein deacetylase sirtuin-1 (Homo sapiens, UniProt Q96EB6, F273L). The test can be described thus: Inhibition of human SIRT1 F273L mutant expressed in Escherichia coli BL21(DE3) using AMC-labeled Arg-His-Lys-Lys(ac) as substrate assessed as inhibition of deacetylation of peptide after 45 mins by Lineweaver-Burke plot method.
T2 sequence (Q96EB6 2-747 F273L limits assumed): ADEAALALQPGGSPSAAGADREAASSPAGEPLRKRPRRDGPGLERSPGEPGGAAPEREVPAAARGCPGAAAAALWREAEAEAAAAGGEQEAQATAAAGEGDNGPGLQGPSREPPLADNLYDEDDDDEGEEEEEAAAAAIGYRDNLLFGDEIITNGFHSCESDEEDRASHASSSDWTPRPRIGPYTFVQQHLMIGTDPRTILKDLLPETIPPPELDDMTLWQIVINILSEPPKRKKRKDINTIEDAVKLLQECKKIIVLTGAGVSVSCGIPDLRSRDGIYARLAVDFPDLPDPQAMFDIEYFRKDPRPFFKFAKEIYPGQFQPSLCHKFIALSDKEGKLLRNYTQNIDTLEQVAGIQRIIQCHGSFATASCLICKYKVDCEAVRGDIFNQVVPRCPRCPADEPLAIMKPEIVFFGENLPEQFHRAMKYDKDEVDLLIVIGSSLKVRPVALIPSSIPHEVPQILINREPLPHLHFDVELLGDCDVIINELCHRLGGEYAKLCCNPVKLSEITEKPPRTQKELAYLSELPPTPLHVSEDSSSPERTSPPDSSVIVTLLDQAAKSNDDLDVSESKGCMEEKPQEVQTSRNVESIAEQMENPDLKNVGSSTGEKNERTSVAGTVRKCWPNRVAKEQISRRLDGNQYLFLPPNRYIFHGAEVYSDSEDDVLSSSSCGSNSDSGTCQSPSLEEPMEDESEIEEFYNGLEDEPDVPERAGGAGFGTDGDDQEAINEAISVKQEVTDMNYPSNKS
Test [3] concerns the target T3, NAD-dependent protein deacetylase sirtuin-1 (Homo sapiens, UniProt Q96EB6, I347A). Kind of test: Inhibition of human SIRT1 I347A mutant expressed in Escherichia coli BL21(DE3) using AMC-labeled Arg-His-Lys-Lys(ac) as substrate assessed as inhibition of deacetylation of peptide after 45 mins by Lineweaver-Burke plot method.
Test [4] has as its target T4, NAD-dependent protein deacetylase sirtuin-1 (Homo sapiens, UniProt Q96EB6, F414A). The test can be described thus: Inhibition of human SIRT1 F414A mutant expressed in Escherichia coli BL21(DE3) using AMC-labeled Arg-His-Lys-Lys(ac) as substrate assessed as inhibition of deacetylation of peptide after 45 mins by Lineweaver-Burke plot method.
For test [5], the target named is T4, NAD-dependent protein deacetylase sirtuin-1. Kind of test: Inhibition of human SIRT1 F414A mutant expressed in Escherichia coli BL21(DE3) using AMC-labeled Arg-His-Lys-Lys(ac) as substrate assessed as inhibition of deacetylation of peptide after 45 mins by fluorescence assay.
In test [6] the target is T2, NAD-dependent protein deacetylase sirtuin-1. The test can be described thus: Inhibition of human SIRT1 F273L mutant expressed in Escherichia coli BL21(DE3) using AMC-labeled Arg-His-Lys-Lys(ac) as substrate assessed as inhibition of deacetylation of peptide after 45 mins by fluorescence assay.
Test [7] deals with T3, NAD-dependent protein deacetylase sirtuin-1. Kind of test: Inhibition of human SIRT1 I347A mutant expressed in Escherichia coli BL21(DE3) using AMC-labeled Arg-His-Lys-Lys(ac) as substrate assessed as inhibition of deacetylation of peptide after 45 mins by fluorescence assay.
The target of test [8] is T1, NAD-dependent protein deacetylase sirtuin-1. Kind of test: Inhibition of hexa-His-tagged recombinant human SIRT1 expressed in Escherichia coli BL21(DE3) using AMC-labeled Arg-His-Lys-Lys(ac) as substrate assessed as inhibition of deacetylation of peptide after 45 mins by Lineweaver-Burke plot method.
Test [9] has as its target T5, NAD-dependent protein deacetylase sirtuin-1 (Homo sapiens) (UniProt Q96EB6).
T5 sequence (whole entry): T1 sequence (Q96EB6 whole entry)
The test can be described thus: Inhibition of SIRT1-mediated deacetylation of p53 in human MCF7 cells at 1.2 to 100 uM after 6 hrs by Western blotting. Type of test: cell-based.

T4 sequence (Q96EB6 2-747 F414A limits assumed): as the sequence (Q96EB6 2-747 F273L limits assumed) above, with L272F, F413A counted along it
T3 sequence (Q96EB6 2-747 I347A limits assumed): as the sequence (Q96EB6 2-747 F273L limits assumed) above, with L272F, I346A counted along it

In the case of `Cc1ccc(-c2nn3c(-c4ccco4)nnc3s2)cc1`, the IC50 in test [1] was 27.4 µM.

With `Cc1cccc(-c2nn3c(-c4ccco4)nnc3s2)c1`, in [1], the IC50 is 7.5 µM.

Regarding `CCOc1cc(-c2nn3c(-c4ccco4)nnc3s2)cc(OCC)c1OCC`, the IC50 in [1] stood at 65.7 µM.

Consider `c1ccc(-c2nn3c(-c4ccco4)nnc3s2)nc1`, for which the Ki in test [2] is 58.9 µM; in test [3] it was 39.1 µM; in test [4], 24.1 µM; in test [8], 0.6 µM. The IC50 in [5] was found to be 44 µM; in test [1] it was 3.5 µM; in test [6] it was 133 µM; in [7] it was 87.9 µM. Besides, the inhibition result in test [9] was “Dose-dependent effect”.

Regarding `COc1cccc(-c2nn3c(-c4ccco4)nnc3s2)c1`, the IC50 in [1] is 20.3 µM.

For `Fc1ccc(-c2ccc(-c3nn4c(-c5ccco5)nnc4s3)o2)cc1`, the IC50 in test [1] was more than 100 µM.

For `c1coc(-c2nnc3sc(-c4cccs4)nn23)c1`, in test [1], the IC50 is 88.6 µM.

For the compound `COc1ccc(Cc2nn3c(-c4ccco4)nnc3s2)cc1OC`, the IC50 in test [1] stood at 4.1 µM. Further, in [9], the inhibition entry was “Dose-dependent effect”.

In the case of `Clc1ccc(Cc2nn3c(-c4ccco4)nnc3s2)cc1`, the IC50 in test [1] amounted to 78 µM.

In the case of `Cc1ccc(OCc2nn3c(-c4ccco4)nnc3s2)cc1C`, the IC50 in test [1] worked out at 28.7 µM.

As to `c1ccc(OCc2nn3c(-c4ccco4)nnc3s2)cc1`, the IC50 in test [1] turned out to be 61.3 µM.

Take `CCOc1ccccc1OCc1nn2c(-c3ccco3)nnc2s1`: in test [1], the IC50 turned out to be 13.7 µM.

Take `c1coc(-c2nnc3sc(C4COc5ccccc5O4)nn23)c1` (stereo not drawn): the IC50 in test [1] turned out to be 8.9 µM. In test [9], the inhibition entry is “Dose-dependent effect”.

`c1ccc(CCCc2nn3c(-c4ccco4)nnc3s2)cc1`: the IC50 in test [1] was 12.2 µM.

For `c1coc(-c2nn3c(-c4ccco4)nnc3s2)c1`, the IC50 in test [1] turned out to be 22 µM.

`CCOc1ccc(-c2nn3c(-c4ccco4)nnc3s2)cc1`: the IC50 in test [1] was determined as 31.3 µM.

Take `CCC(c1ccccc1)c1nn2c(-c3ccco3)nnc2s1` (stereo not drawn): in test [1], the IC50 is 96.2 µM.

With `COc1ccc(Cc2nn3c(-c4ccco4)nnc3s2)cc1`, the IC50 in test [1] amounted to 76.9 µM.

On to `COc1cccc(OCc2nn3c(-c4ccco4)nnc3s2)c1`, for which the IC50 in test [1] was 48.4 µM.

Take `c1coc(-c2nnc3sc(-c4ccc5c(c4)OCO5)nn23)c1`: the IC50 in [1] came to 45.2 µM.

Take `C=CCOc1cccc(-c2nn3c(-c4ccco4)nnc3s2)c1`: in [1], the IC50 was found to be 18.8 µM.

For the compound `c1ccc(Cc2nn3c(-c4ccco4)nnc3s2)cc1`, in test [1], the IC50 worked out at 37.9 µM.

Consider `COc1ccc(-c2nn3c(-c4ccco4)nnc3s2)cc1`, for which the IC50 in test [1] came to 46.7 µM.

As for `CC(Oc1ccccc1)c1nn2c(-c3ccco3)nnc2s1` (stereo not drawn), the IC50 in test [1] turned out to be 67.9 µM.

`CCOc1ccccc1-c1nn2c(-c3ccco3)nnc2s1`: in test [1], the IC50 stood at 23.6 µM.

With `c1cncc(-c2nn3c(-c4ccco4)nnc3s2)c1`, the IC50 in [1] came to 78.8 µM.

For the compound `CCOc1cccc(-c2nn3c(-c4ccco4)nnc3s2)c1`, the IC50 in test [1] came out at 19 µM.

For `c1coc(-c2nnc3sc(-c4ccc5c(c4)OCCO5)nn23)c1`, in [1], the IC50 was 40.7 µM.

As to `c1ccc(CCc2nn3c(-c4ccco4)nnc3s2)cc1`, the IC50 in [1] was determined as 47.4 µM.

For the compound `c1coc(-c2nnc3sc(-c4cnccn4)nn23)c1`, the 50% inhibitory concentration (IC50) in test [1] stood at 66.6 µM.

For `CCC(Oc1ccccc1)c1nn2c(-c3ccco3)nnc2s1` (stereo not drawn), the IC50 in [1] was more than 100 µM.

Consider `c1coc(-c2nnc3sc(-c4ccncc4)nn23)c1`, for which the IC50 in [1] came out at 49.8 µM.

As for `Cc1ccccc1OCc1nn2c(-c3ccco3)nnc2s1`, the IC50 in [1] was 18.7 µM.

Consider `COc1cc(-c2nn3c(-c4ccco4)nnc3s2)cc(OC)c1OC`, for which the IC50 in [1] turned out to be 35.6 µM.

Turning to `Cc1ccc(OCc2nn3c(-c4ccco4)nnc3s2)cc1`, the IC50 in test [1] is 29.3 µM.

`c1coc(-c2nnc3sc(-c4cc5ccccc5o4)nn23)c1`: in test [1], the IC50 came out at 20.6 µM.

In the case of `c1coc(-c2nnc3sc(Cc4ccc5c(c4)OCCO5)nn23)c1`, the IC50 in [1] was found to be 67 µM.

Consider `Cc1cccc(OCc2nn3c(-c4ccco4)nnc3s2)c1`, for which the IC50 in test [1] was determined as 75.3 µM.

For `COc1ccc(OCc2nn3c(-c4ccco4)nnc3s2)cc1`, the IC50 in [1] was 41 µM.

For `C=CCOc1ccc(-c2nn3c(-c4ccco4)nnc3s2)cc1`, the IC50 in [1] came to 29.5 µM.

On to `c1ccc(-c2nn3c(-c4ccco4)nnc3s2)cc1`, for which the 50% inhibitory concentration (IC50) in test [1] came out at 27.6 µM.

Turning to `COc1ccccc1OCc1nn2c(-c3ccco3)nnc2s1`, in test [1], the IC50 amounted to 51.2 µM.

Consider `COc1ccc(-c2nn3c(-c4ccco4)nnc3s2)cc1OC`, for which the IC50 in [1] was 24.8 µM.

For the origin of these results see ChEMBL document CHEMBL3351989, “Structure-activity relationship and interaction studies of new SIRT1 inhibitors with the scaffold of 3-(furan-2-yl)-[1,2,4]triazolo[3,4-b][1,3,4]thiadiazole” (Bioorg Med Chem Lett, 2014).
